Entries after “also recorded” stand apart in the source; their conditions may differ.
Tests used:
[1] = test system: renal tubular cells (RTC); assay: In vitro inflammation model: renal tubular cells co-cultivated with bacterial lysate-activated leukocytes; format: cell-based, rat; settings: for renal cell death (Annexin V-positive): 48 hr exposure to activated leukocytes, pre-incubation with drug; for TNF release in RTC-leukocyte co-culture: activated leukocytes (LC+BL)
Experimental: Kidneys from 1-3 day old rats were excised under aseptic conditions. The tissue was blended and dissociated by collagenase treatment (0.5%, 30 min at 37° C.). The final suspension was centrifuged for 5 min at 50 g. The pellet was resuspended in about 10 ml of DMEM/F12 (Gibco, USA) supplemented with 10% FCS (Gibco, USA) and kept for 2 min, after which the supernatant was transferred to another tube and the pellet was repeatedly resuspended. After 10 min, the renal tubules were pelleted and dissociated cells remaining in the suspension were discarded. The pellet was resuspended in DMEM/F12 with 10% FCS and seeded onto 24-well plates or onto coverslips placed in 35-mm glass-bottom Petri dishes.
E. coli strain No. 85 was cultured overnight in a cultivation medium containing 1% tryptone, 0.5% yeast extract and 1% NaCl (Sigma-Aldrich, USA). The medium, containing roughly 10^9 colony-forming units (CFU) per ml, was pelleted at 300 g for 3 min. The bacterial lysate was prepared by diluting 30 ml of an overnight (ON) culture and diluting the precipitate in 3 ml of 0.9% NaCl followed by autoclaving for 1.5 hr at 120° C.
5 ml heparinized blood collected from the jugular vein of adult male rats was carefully layered over 5 ml of Ficoll-Urografin (density of 1.077 g/cm^3), and centrifuged for 30 min at 200 g. This procedure results in erythrocyte pelleting, while the mononuclear fraction of leukocytes forms an interphase ring on the Ficoll surface, which was carefully collected. Leukocytes were transferred into another tube and centrifuged for 3 min at 200 g. The resultant pellet was resuspended in 5 ml of DMEM/F12. After cell counting in a hemocytometer, the cells were diluted to a final concentration of about 1×10^5 cells per ml.
In a two-day old renal cell culture, the medium was substituted with DMEM/F12 (400 μl per well, 1600 μl per dish), supplemented with (depending on the purpose): GSK-3β inhibitor LiCl (9 mM) (Sigma-Aldrich, USA), water-soluble antioxidant Trolox (50 μM, 100 μM) (Sigma-Aldrich, USA), MTAs 10-(6-plastoquinonyl)decyl-triphenylphosphonium (SkQ1), synthesized according to Antonenko et al. (2008) Biochemistry (Mosc) 73:1273-87), 10 nM, 100 nM), and 10-(6′-plastoquinonyl) decylrhodamine 19 SkQR1), synthesized according to Antonenko (2008), (1 nM, 10 nM, or 100 nM). Renal cells were incubated for 2 hr in this medium, followed by supplementation with leukocytes or neutrophils in DMEM/F12, or DMEM/F12, alone, in the control sample (400 μl per well, 1600 μl per dish). Simultaneously, the bacterial lysate or lipopolysaccharide (100 ng/ml, LPS, Sigma-Aldrich, USA) solution in DMEM/F12 and DMEM/F12 alone in the control sample (100 μl per well, 400 μl per dish) were added. Renal cells, leukocytes (neutrophils) were co-cultivated for 24 or 48 hr with bacterial lysate or LPS. Cell death (both necrotic and apoptotic) rate was evaluated using Annexin-V FITC Kit (Invitrogen, USA).
(§1) The ROS-sensitive fluorescent probe 2,7-DCF-DA (Molecular Probes, USA) dissolved in DMEM/F12 without bicarbonate (final concentration 10 μM) was added to renal cells (500 μl per well of 24-well plate, 2 ml per dish) and incubated for 15 min at 37° C. followed by a wash with DMEM/F12 without bicarbonate. MDA was determined as in (Mihara and Uchiyama (1978) Anal. Biochem. 86:271-8). Fluorescent probe, DAF-2-DA (Calbiochem, San Diego, Calif., USA) was used for NO determination in living cells. The procedure was the same as for 2,7-DCF-DA. The nitrite/nitrate concentration (as products of NO oxidation) in culture media was determined using Nitrite/Nitrate Assay Kit (Sigma-Aldrich, USA). TNFα was determined using the kit Rat TNFα ELISA Ready-SET-Go (Ebioscience, USA).
Renal cells were imaged with an LSM510 inverted confocal microscope (Carl Zeiss Inc., Jena, Germany) with excitation at 488 nm and emission collected at 500 nm-530 nm with a pinhole diameter of 150 μm. Images were processed using ImageJ software (NIH, Bethesda, Md., USA).

[2] = test system: rat model of APN; assay: In vivo rat model of acute pyelonephritis (APN), bacteria introduced in the bladder
Experimental: An in vivo experimental model of APN was used where bacteria are introduced in the bladder of rat (Gupta et al. (1995) J. Med. Microbiol. 43:33-36). Experiments were performed on outbred white female rats (180-200 g) fed ad libitum. Animal protocols were approved by the Institutional Review Boards. Rats were anesthetized with chloral hydrate (300 mg/kg, intraperitoneally(ip)). The animals were infected intraurethrally using a soft Intramedic non-radio-opaque polyethylene catheter (Clay Adams, USA). The inoculum (5 ml per kg, 1×10^8 CFU/ml of rat fecal bacterial composition) was injected slowly to avoid any leakage […]. Control animals were untreated. The therapeutic protocol of SkQR1 used to treat this pathology was as follows: […], with subsequent injections of the same amount of SkQR1 at 12, 24, 36 and 48 hrs; in total, each animal received 500 nmol SkQR1 per kg. […]
Kidney mitochondria were isolated by homogenization and differential centrifugation in a medium containing 250 mM sucrose, 20 mM HEPES-KOH, 1 mM EGTA and 0.1% BSA, pH7.4. Total mitochondrial protein was determined using a bicinchoninic acid protein assay kit (Sigma-Aldrich, USA). The mitochondria from cultured kidney cells were isolated by the same protocol.
as §1
The kidney was isolated immediately after sacrificing the animal and perfused with ice-cold PBS. It was then fixed in a 10% neutral buffered formalin solution, embedded in paraffin and used for histopathological examination. Five micrometer thick sections were cut, deparaffinized, hydrated, and stained with hematoxylin and eosin. The renal sections were examined in blinded fashion for inflammation and infiltration by leukocytes in the kidneys of all treated animals. A minimum of 10 fields for each kidney slide were examined and scored for pathologic severity.
The manifestation of inflammatory indicators (i.e., a number of infiltrated leukocytes in every layer and the presence of abscesses) under APN was evaluated using the following scale: 0, none; 1, 5-50 leukocytes in the view field; […]; 4, abscesses with pus-necrotic content. The distribution of inflammatory changes (i.e., comparative analysis of infiltration and abscesses) was evaluated by the following criteria: 0, none in any layer; 1, infiltration in the medullar layer; 2, infiltration reaching the cortex.
Kidney homogenates for MPO determination were centrifuged at 20000 g 15 min, the pellets were resuspended in 50 mM K-phosphate buffer containing 0.5% CTAB. Resulted samples were frozen and thawed three times and then centrifuged at 10600 g 10 min. Supernatants were analyzed for MPO activity in chromogenic reaction with o-phenylenediamine (OPD). 100 μl sample was mixed with 100 μl substrate buffer (25 mM Na-citrate, 50 mM Na-phosphate, 0.45 mg/ml OPD, 0.1% H2O2, pH 5.0) and was incubated 15 min at room temperature and then OD was detected at 492 nm.
Samples of kidney homogenates were loaded onto 15% Tris-glycine polyacrylamide gels (10-20 μg of total protein per lane). After electrophoresis, gels were blotted onto PVDF membranes (Amersham Pharmacia Biotech, UK). […]

With `c1ccc2c(c1)[I+]c1ccccc1-2` [DPI, diphenyleneiodonium, reference compound] the “ROS production inside renal cells (DCF fluorescence)” value ([1]; 0.5 μM) was “inhibited the ROS production”.
In the case of `[Cl-].[Li+]` [LiCl, reference compound], the “renal cell death (Annexin V-positive)” value [1] is reported as “protected renal cells from death and its effect was more profound than of Trolox”, the “ROS production in renal cells (DCF fluorescence)” value (“ROS production in renal cells” for short) ([1]; LiCl pre-treatment (9 mM)) is reported as “had an antioxidative effect” and the “TNF release in RTC-leukocyte co-culture” value [1] is reported as “did not have a significant effect”.
`CC/N=c1/cc2oc3cc(NCC)c(C)cc3c(-c3ccccc3C(=O)OCCCCCCCCCCC3=CC(=O)C(C)=C(C)C3=O)c-2cc1C` [SkQR1, 10-(6′-plastoquinonyl) decylrhodamine 19] was tested, and the “ROS production in renal cells” value ([1]; 10 nM, pretreatment 2 hr, co-cultivation with activated leukocytes) was “suppression of ROS production after co-cultivation with activated leukocytes to levels close to those observed on controls”, the “renal cell death (Annexin V-positive)” value [1] was “more pronounced than that afforded by the traditional water-soluble antioxidant, Trolox; also recorded: highest efficiency” and the “TNF release in RTC-leukocyte co-culture” value [1] was “did not have a significant effect”. For the same molecule, the “number of leukocytes in the blood” value ([2]; 3 days after infection, SkQR1) was “prevented an elevation”, the “abscesses in kidneys of pyelonephritic rats” value ([2]; SkQR1 100 nmoles/kg ip at 1, 12, 24, 36, 48 hr after bacteria) was “significantly less prevalent” and the “MDA concentration in whole kidney tissue” value ([2]; SkQR1 100 nmoles/kg ip x5) was “significantly lower”. The “leukocyte infiltration in all kidney layers and spreading of the inflammatory process” value ([2]; SkQR1 100 nmoles/kg ip x5, histology) was “inhibited”, the “kidney tissue concentration of TNFα” value ([2]; SkQR1-treated pyelonephritic rats vs APN rats without SkQR1) was “lower than in APN rats without SkQR1” and the “activation of pro-inflammatory signaling pathways in peripheral leukocytes” value ([2]; SkQR1-treated rats) was “suppressed”. The “other inflammation markers in blood (FIG. 8A-8C)” value ([2]; SkQR1-treated rats) was “decreased”, the animal survival ([2]; SkQR1 during first two days after infection) was “significantly greater” and the “Bcl-2 changes in isolated kidney mitochondria (weaker 26 kD band, stronger 15 kD band)” value ([2]; Western blot) was “diminished”. For the same molecule, the “level of IKB in leukocytes” value ([2]; Western blot, lower in untreated pyelonephritic rats) was “lower in untreated pyelonephritic rats but not in SkQR1-treated rats”, the “Bcl-2 level in total kidney homogenates” value ([2]; Western blot, lowering seen with pyelonephritis) was “absent in pyelonephritic rats receiving SkQR1” and the “expression of toll receptors in different regions of the kidney” value ([2]; activated under APN) was “normal expression”. The “tissue activity of myeloperoxidase (MPO), index of neutrophil infiltration” value ([2]; kidney, SkQR1 100 nmoles/kg ip x5) was “significantly inhibited” and the “ROS production (DCF fluorescence) in blood leukocytes” value ([2]; leukocytes from pyelonephritic rats receiving SkQR1 vs untreated) was “lower than in untreated animals”.
In the case of `Cc1c(C)c2c(c(C)c1O)CCC(C)(C(=O)O)O2` (centres unmarked) [Trolox, reference compound], the “ROS production in renal cells” value ([1]; 100 μM, pretreatment 2 hr, co-cultivation with activated leukocytes) is reported as “suppression of ROS production after co-cultivation with activated leukocytes to levels close to those observed on controls” and the “TNF release in RTC-leukocyte co-culture” value [1] is reported as “did not have a significant effect”.

From patent US20160243136A1, “PHARMACEUTICAL FORMULATIONS CONTAINING MITOCHONDRIALLY TARGETED ANTIOXIDANTS” (Mitotech SA, priority 2013, published 2016)
